Test results as given in patent US20180110824A1, “Macrocyclic Modulators of the Ghrelin Receptor” (Ocera Therapeutics, Inc., priority 2016, published 2018).

What follows are compounds tested against T1, human growth hormone secretagogue receptor (hGHS-R1a) (Homo sapiens, UniProt Q92847) (assay: Competitive radioligand binding assay (ghrelin receptor), [125I]-ghrelin displacement on GHS-R/HEK 293 membranes). Conditions: Binding activity at the human ghrelin receptor, [125I]-ghrelin displacement; read-out: Ki.
T1 construct: purchased PerkinElmer BioSignal #RBHGHSM; host or cells: HEK-293, stably transfected
T1 sequence (Q92847 whole entry): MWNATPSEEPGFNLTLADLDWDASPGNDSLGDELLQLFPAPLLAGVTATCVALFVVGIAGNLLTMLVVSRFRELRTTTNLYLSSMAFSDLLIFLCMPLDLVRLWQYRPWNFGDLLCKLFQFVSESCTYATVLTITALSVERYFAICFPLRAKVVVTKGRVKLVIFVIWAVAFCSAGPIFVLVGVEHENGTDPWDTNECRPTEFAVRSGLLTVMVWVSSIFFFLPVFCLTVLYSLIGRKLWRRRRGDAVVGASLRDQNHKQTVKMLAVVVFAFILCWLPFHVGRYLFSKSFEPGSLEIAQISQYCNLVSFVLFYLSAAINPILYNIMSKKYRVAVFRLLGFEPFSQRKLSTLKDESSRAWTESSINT

`CC(C)C[C@@H]1NCCOc2ccccc2CCCNC(=O)[C@H](Cc2ccccc2)NC(=O)C2(CC2)NC1=O` [compound 111] and `CC(C)[C@@H]1NCCOc2ccccc2/C=C/CNC(=O)[C@H](Cc2ccccc2)NC(=O)C2(CCOCC2)NC1=O` [compound 140] fall in the same range of Ki: 100 to 1000 nM for the first, 100 to 1000 nM for the second.

Same assay, conditions: Table 3B; binding activity at the human ghrelin receptor; read-out: Ki

Compared with `C[C@@H]1C(=O)N[C@H](Cc2ccc(F)cc2)C(=O)NCCCc2ncccc2OCCN[C@@H](C2CC2)C(=O)N1C` [306a], `C[C@@H]1C(=O)N[C@H](Cc2ccc(Cl)cc2)C(=O)NCCCc2ccccc2OCCN[C@@H](C2CC2)C(=O)N1C` [compound 299] is lower in Ki: 10 to 100 nM for the first, 0.1 to 10 nM for the second. The second binds more tightly here.

First: CCC(C)[C@@H]1NCCOc2ccccc2/C=C/CNC(=O)[C@H](Cc2cccc(Cl)c2)NC(=O)C2(CCCC2)NC1=O (some centres unmarked) [345a]
Second: CCC(C)[C@@H]1NC[C@@H](C)Oc2ccccc2CCCNC(=O)[C@H](Cc2cccc(Cl)c2)NC(=O)C2(CCCC2)NC1=O (some centres unmarked) [368a]
The Ki of the first is higher: 100 to 1000 nM for the first, 10 to 100 nM for the second. The second binds more tightly here.

First: C[C@@H]1C(=O)N[C@H](Cc2ccc(O)c(C(C)(C)C)c2)C(=O)NCCCc2ccccc2OCCN[C@@H](C2CC2)C(=O)N1C [compound 311]
Second: C[C@@H]1C(=O)N[C@H](Cc2ccc(C(F)(F)F)cc2)C(=O)NCCCc2ccccc2OCCN[C@@H](C2CC2)C(=O)N1C [compound 322]
The Ki of the first is higher: 10 to 100 nM for the first, 0.1 to 10 nM for the second.

First: C[C@@H]1C(=O)N[C@H](Cc2c(F)c(F)c(F)c(F)c2F)C(=O)NCCCc2ccccc2OCCN[C@@H](C2CC2)C(=O)N1C [compound 318]
Second: C[C@@H]1C(=O)N[C@H](Cc2ccc(F)cc2)C(=O)NCC#Cc2ccccc2OCCN[C@@H](C2CC2)C(=O)N1C [compound 354]
The Ki of the first is lower: 0.1 to 10 nM for the first, 10 to 100 nM for the second. The first binds more tightly here.

Same assay, conditions: Table 4; TFA salts unless otherwise noted; read-out: Ki

Compared with `C[C@@H]1C(=O)N[C@H](Cc2ccc(F)cc2)C(=O)NCCCc2ncccc2OCCN[C@@H](C2CC2)C(=O)N1C` [306a], `C[C@@H]1C(=O)N[C@H](Cc2ccc(Cl)cc2)C(=O)NCCCc2ccccc2OCCN[C@@H](C2CC2)C(=O)N1C` [compound 299] is lower in Ki: 10 to 100 nM for the first, 0.1 to 10 nM for the second.

First: CCC(C)[C@@H]1NCCOc2ccccc2/C=C/CNC(=O)[C@H](Cc2cccc(Cl)c2)NC(=O)C2(CCCC2)NC1=O (some centres unmarked) [345a]
Second: CCC(C)[C@@H]1NC[C@@H](C)Oc2ccccc2CCCNC(=O)[C@H](Cc2cccc(Cl)c2)NC(=O)C2(CCCC2)NC1=O (some centres unmarked) [368a]
The Ki of the first is higher: 10 to 100 nM for the first, 0.1 to 10 nM for the second. The second binds more tightly here.

First: CC(C)C[C@@H]1NCCOc2ccccc2CCCNC(=O)[C@H](Cc2ccccc2)NC(=O)C2(CC2)NC1=O [compound 111]
Second: CC(C)[C@@H]1NCCOc2ccccc2/C=C/CNC(=O)[C@H](Cc2ccccc2)NC(=O)C2(CCOCC2)NC1=O [compound 140]
The Ki of the first is lower: 10 to 100 nM for the first, 100 to 1000 nM for the second. The first binds more tightly here.

First: C[C@@H]1C(=O)N[C@H](Cc2ccc(O)c(C(C)(C)C)c2)C(=O)NCCCc2ccccc2OCCN[C@@H](C2CC2)C(=O)N1C [compound 311]
Second: C[C@@H]1C(=O)N[C@H](Cc2ccc(C(F)(F)F)cc2)C(=O)NCCCc2ccccc2OCCN[C@@H](C2CC2)C(=O)N1C [compound 322]
The Ki of the first is higher: 10 to 100 nM for the first, 0.1 to 10 nM for the second. The second binds more tightly here.

First: C[C@@H]1C(=O)N[C@H](Cc2c(F)c(F)c(F)c(F)c2F)C(=O)NCCCc2ccccc2OCCN[C@@H](C2CC2)C(=O)N1C [compound 318]
Second: C[C@@H]1C(=O)N[C@H](Cc2ccc(F)cc2)C(=O)NCC#Cc2ccccc2OCCN[C@@H](C2CC2)C(=O)N1C [compound 354]
The Ki of the first is lower: 0.1 to 10 nM for the first, 10 to 100 nM for the second. The first binds more tightly here.

These compounds were tested against motilin receptor (Homo sapiens, UniProt O43193) (assay: Selectivity for the ghrelin receptor versus the motilin receptor). Conditions: not given.
motilin receptor, sequence (O43193 whole entry, species assumed): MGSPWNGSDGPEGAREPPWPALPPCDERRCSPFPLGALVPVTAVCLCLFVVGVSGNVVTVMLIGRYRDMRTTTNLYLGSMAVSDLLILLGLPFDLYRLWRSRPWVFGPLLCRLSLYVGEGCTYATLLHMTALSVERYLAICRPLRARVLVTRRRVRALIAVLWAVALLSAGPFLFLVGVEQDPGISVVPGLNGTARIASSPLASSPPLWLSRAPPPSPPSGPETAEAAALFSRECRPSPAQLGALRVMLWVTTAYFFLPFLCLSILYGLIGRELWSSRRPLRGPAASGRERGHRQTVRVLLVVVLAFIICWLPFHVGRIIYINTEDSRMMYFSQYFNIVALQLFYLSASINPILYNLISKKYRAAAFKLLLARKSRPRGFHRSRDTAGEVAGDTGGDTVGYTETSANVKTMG
Format: binding
Excerpt: The level of agonist activity and selectivity for representative compounds of the invention are shown below in Table 4.

In the case of `C[C@@H]1C(=O)N[C@H](Cc2ccc(F)cc2)C(=O)NCCCc2ncccc2OCCN[C@@H](C2CC2)C(=O)N1C` [306a], the Selectivity is reported as 714/1.
`CCC(C)[C@@H]1NCCOc2ccccc2/C=C/CNC(=O)[C@H](Cc2cccc(Cl)c2)NC(=O)C2(CCCC2)NC1=O` (some centres unmarked) [345a] was tested, and the Selectivity was >159/1.
`C[C@@H]1C(=O)N[C@H](Cc2ccc(O)c(C(C)(C)C)c2)C(=O)NCCCc2ccccc2OCCN[C@@H](C2CC2)C(=O)N1C` [compound 311] was tested, and the Selectivity was 21/1.

The compounds below were run against T2, human ghrelin receptor (hGHS-R1a) (Homo sapiens, UniProt Q92847) (assay: Aequorin functional assay (ghrelin receptor), CHO-K1 cells co-expressing Gα16 and aequorin). Conditions: Table 4; functional (agonist) activity; TFA salts unless otherwise noted; read-out: EC50.
T2 construct: host or cells: CHO-K1 co-expressing Gα16 and mitochondrially targeted aequorin
T2 sequence (Q92847 whole entry): as the sequence (Q92847 whole entry) above
Format: cell-based
Method: This cell line is typically constructed by transfection of the human ghrelin receptor into CHO-K1 cells co-expressing Gα16 and the mitochondrially targeted Aequorin (Ref #ES-WT-A5). • 1. […] Assay buffer: DMEM (Dulbecco's Modified Eagles Medium) containing 0.1% BSA (bovine serum albumin; pH 7.0). • 3. Coelenterazine (Molecular Probes, Leiden, The Netherlands). • Final test concentrations (N=8) for compounds of the invention: 10, 1, 0.3, 0.1, 0.03, 0.01, 0.003, 0.001 μM.
Stock solutions of compounds (10 mM in 100% DMSO) were provided frozen on dry ice and stored at −20° C. prior to use. […] Assay plates were then prepared by appropriate dilution in DMEM medium containing 0.1% BSA. Under these conditions, the maximal final DMSO concentration in the assay was <0.6%.
AequoScreen™ cells were collected from culture plates with Ca^2+ and Mg^2+-free phosphate buffered saline (PBS) supplemented with 5 mM EDTA, pelleted for 2 min at 1000×g re-suspended in DMEM—Ham's F12 containing 0.1% BSA at a density of 5×10^6 cells/mL, and incubated O/N at rt in the presence of 5 μM coelenterazine. After loading, cells were diluted with assay buffer to a concentration of 5×10^5 cells/mL.
For agonist testing, 50 μL of the cell suspension was mixed with 50 μL of the appropriate concentration of test compound or ghrelin (reference agonist) in 96-well plates (duplicate samples). Ghrelin (reference agonist) was tested at several concentrations concurrently with the test compounds in order to validate the experiment. The emission of light resulting from receptor activation in response to ghrelin or test compounds was recorded using the Hamamatsu FDSS 6000 reader (Hamamatsu Photonics K.K., Japan).
Results were expressed as Relative Light Units (RLU). […] EC50, Hill slope and % Emax values are reported.
• 1. Assay performed on CHO-K1 cells expressing the transfected, cloned human ghrelin receptor (hGHS-R1a) and Gα16. • 2. Suspended cells incubated O/N with coelenterazine. • 3. Stimulation of hGHS-R1a activates Gα16, causing […] Ca2+ release which ultimately leads to the oxidation of coelenterazine and the emission of a quantitative luminescent signal. • 4. Ghrelin was used as the positive control. • 5.

`C[C@@H]1C(=O)N[C@H](Cc2ccc(F)cc2)C(=O)NCCCc2ncccc2OCCN[C@@H](C2CC2)C(=O)N1C` [306a] and `C[C@@H]1C(=O)N[C@H](Cc2ccc(Cl)cc2)C(=O)NCCCc2ccccc2OCCN[C@@H](C2CC2)C(=O)N1C` [compound 299] fall in the same range of EC50: 1 to 100 nM for the first, 1 to 100 nM for the second.

First: CCC(C)[C@@H]1NCCOc2ccccc2/C=C/CNC(=O)[C@H](Cc2cccc(Cl)c2)NC(=O)C2(CCCC2)NC1=O (some centres unmarked) [345a]
Second: CCC(C)[C@@H]1NC[C@@H](C)Oc2ccccc2CCCNC(=O)[C@H](Cc2cccc(Cl)c2)NC(=O)C2(CCCC2)NC1=O (some centres unmarked) [368a]
The EC50 of the first is lower: 1 to 100 nM for the first, greater than 1000 nM for the second. The first is the more potent here.

`CC(C)C[C@@H]1NCCOc2ccccc2CCCNC(=O)[C@H](Cc2ccccc2)NC(=O)C2(CC2)NC1=O` [compound 111] and `CC(C)[C@@H]1NCCOc2ccccc2/C=C/CNC(=O)[C@H](Cc2ccccc2)NC(=O)C2(CCOCC2)NC1=O` [compound 140] fall in the same range of EC50: 100 to 1000 nM for the first, 100 to 1000 nM for the second.

`C[C@@H]1C(=O)N[C@H](Cc2c(F)c(F)c(F)c(F)c2F)C(=O)NCCCc2ccccc2OCCN[C@@H](C2CC2)C(=O)N1C` [compound 318] and `C[C@@H]1C(=O)N[C@H](Cc2ccc(C(F)(F)F)cc2)C(=O)NCCCc2ccccc2OCCN[C@@H](C2CC2)C(=O)N1C` [compound 322] fall in the same range of EC50: 1 to 100 nM for the first, 1 to 100 nM for the second.

Work on `C[C@@H]1C(=O)N[C@H](Cc2ccc(F)cc2)C(=O)NCC#Cc2ccccc2OCCN[C@@H](C2CC2)C(=O)N1C` [compound 354] yielded an EC50 of 1 to 100 nM.
